The results in this text go back to the supplement of paper PMC10307832.

Test in all cases: relative viability (nuclei count vs DMSO), 5 days (fraction); higher = more cells survive
Compound in the test “Bemcentinib + AZD7762”: Nc1nc(Nc2ccc3c(c2)CC[C@@H](N2CCCC2)CC3)nn1-c1cc2c(nn1)-c1ccccc1CCC2 [Bemcentinib] + NC(=O)Nc1cc(-c2cccc(F)c2)sc1C(=O)N[C@H]1CCCNC1 [AZD7762] (partner 0.2 µM)
In short, it runs like this: (§1)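 Cells from lung cancer lines were seeded into 1536-well plates and, one day later, dosed by pin tool. Treatments were either a single drug or a fixed dose of an anchor drug with five library-drug doses (not always all listed) in √10 steps. After 5 days, nuclei were stained in a one-step fixation (final 0.05% Triton X-100, 1% formaldehyde, 1 ug/ml Hoechst) and counted on 4× images, and relative viability is the treated-to-vehicle nuclei ratio, as the median of duplicate plates.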

Compound in test [1]: CC1=CC=C(C=C1)C(=O)CN2C3=C(CCCC3)SC2=N [Pifithrin_alpha] + Cc1nc(Nc2ncc(C(=O)Nc3c(C)cccc3Cl)s2)cc(N2CCN(CCO)CC2)n1 [Dasatinib] (partner 0.075 µM)
The essentials:
as §1

Compound in the test “Axitinib + Navitoclax”: CNC(=O)c1ccccc1Sc1ccc2c(/C=C/c3ccccn3)n[nH]c2c1 [Axitinib] + CC1(C)CCC(c2ccc(Cl)cc2)=C(CN2CCN(c3ccc(C(=O)NS(=O)(=O)c4ccc(N[C@H](CCN5CCOCC5)CSc5ccccc5)c(S(=O)(=O)C(F)(F)F)c4)cc3)CC2)C1 [Navitoclax] (partner 0.5 µM)
In short, it runs like this: as §1

Compound in the test “Axitinib + Palbociclib”: CNC(=O)c1ccccc1Sc1ccc2c(/C=C/c3ccccn3)n[nH]c2c1 [Axitinib] + CC(=O)c1c(C)c2cnc(Nc3ccc(N4CCNCC4)cn3)nc2n(C2CCCC2)c1=O [Palbociclib] (partner 0.5 µM)
In short, it runs like this:
as §1

Take NCI-H2405: the relative viability was 0.744 in the test with Bemcentinib + AZD7762 (first compound 0.04 µM); 0.875 in the test with Bemcentinib + AZD7762 (first compound 0.1265 µM); 0.887 in the test with Bemcentinib + AZD7762 (first compound 0.4 µM); 0.819 in the test with Bemcentinib + AZD7762 (first compound 1.265 µM); 0.605 in the test with Bemcentinib + AZD7762 (first compound 4 µM); 0.156 in test [1] (first compound 1 µM). The relative viability in test [1] (first compound 3.162 µM) worked out at 0.197; in test [1] (first compound 10 µM), 0.205; in test [1] (first compound 31.62 µM) it was 0.188; in test [1] (first compound 100 µM), 0.196; with Axitinib + Navitoclax (first compound 0.005 µM) it was 0.913; with Axitinib + Navitoclax (first compound 0.01581 µM), 0.933. Also, the relative viability came out at 0.881 with Axitinib + Navitoclax (first compound 0.05 µM); 0.857 with Axitinib + Navitoclax (first compound 0.1581 µM); 1.11 with Axitinib + Navitoclax (first compound 0.5 µM); 0.505 with Axitinib + Palbociclib (first compound 0.005 µM); 0.524 in the test with Axitinib + Palbociclib (first compound 0.01581 µM); 0.542 with Axitinib + Palbociclib (first compound 0.05 µM). In addition, the relative viability in the test with Axitinib + Palbociclib (first compound 0.1581 µM) worked out at 0.517; in the test with Axitinib + Palbociclib (first compound 0.5 µM), 0.537.
As for NCI-H3122, the relative viability with Bemcentinib + AZD7762 (first compound 0.04 µM) worked out at 0.682; with Bemcentinib + AZD7762 (first compound 0.1265 µM), 1.04; with Bemcentinib + AZD7762 (first compound 0.4 µM) it was 1.03; in the test with Bemcentinib + AZD7762 (first compound 1.265 µM), 1.12; with Bemcentinib + AZD7762 (first compound 4 µM), 1.06; in test [1] (first compound 1 µM) it was 0.82. In addition, the relative viability in test [1] (first compound 3.162 µM) was 0.901; in test [1] (first compound 10 µM) it was 0.732; in test [1] (first compound 100 µM) it was 0.758; with Axitinib + Navitoclax (first compound 0.005 µM) it was 0.992; with Axitinib + Navitoclax (first compound 0.01581 µM) it was 0.956; with Axitinib + Navitoclax (first compound 0.05 µM) it was 1.05. The relative viability came to 1.02 with Axitinib + Navitoclax (first compound 0.1581 µM); 1.04 with Axitinib + Navitoclax (first compound 0.5 µM); 0.171 with Axitinib + Palbociclib (first compound 0.005 µM); 0.198 in the test with Axitinib + Palbociclib (first compound 0.01581 µM); 0.205 with Axitinib + Palbociclib (first compound 0.05 µM); 0.206 with Axitinib + Palbociclib (first compound 0.1581 µM). Further, in the test with Axitinib + Palbociclib (first compound 0.5 µM), the relative viability is 0.184.
For PC-3 [JPC-3], the relative viability in the test with Bemcentinib + AZD7762 (first compound 0.04 µM) was 0.799; in the test with Bemcentinib + AZD7762 (first compound 0.1265 µM) it was 0.899; with Bemcentinib + AZD7762 (first compound 0.4 µM), 0.828; with Bemcentinib + AZD7762 (first compound 1.265 µM) it was 0.847; with Bemcentinib + AZD7762 (first compound 4 µM) it was 0.812; in test [1] (first compound 1 µM), 0.971. For the same cell line, the relative viability in test [1] (first compound 3.162 µM) turned out to be 0.928; in test [1] (first compound 10 µM) it was 0.671; in test [1] (first compound 31.62 µM), 0.933; in test [1] (first compound 100 µM) it was 0.917; in the test with Axitinib + Navitoclax (first compound 0.005 µM) it was 0.827; with Axitinib + Navitoclax (first compound 0.05 µM), 0.787. In addition, the relative viability with Axitinib + Navitoclax (first compound 0.1581 µM) is 0.82; with Axitinib + Navitoclax (first compound 0.5 µM), 0.928; in the test with Axitinib + Palbociclib (first compound 0.005 µM) it was 0.558; in the test with Axitinib + Palbociclib (first compound 0.05 µM), 0.556; with Axitinib + Palbociclib (first compound 0.1581 µM), 0.603; in the test with Axitinib + Palbociclib (first compound 0.5 µM), 0.61.
Consider PC-14, for which the relative viability was 0.262 with Bemcentinib + AZD7762 (first compound 0.04 µM); 0.419 with Bemcentinib + AZD7762 (first compound 0.1265 µM); 0.328 in the test with Bemcentinib + AZD7762 (first compound 0.4 µM); 0.334 in the test with Bemcentinib + AZD7762 (first compound 1.265 µM); 0.292 with Bemcentinib + AZD7762 (first compound 4 µM); 0.207 in test [1] (first compound 1 µM). The relative viability in test [1] (first compound 3.162 µM) was determined as 0.166; in test [1] (first compound 10 µM), 0.134; in test [1] (first compound 31.62 µM), 0.0654; in test [1] (first compound 100 µM), 0.0425; in the test with Axitinib + Navitoclax (first compound 0.005 µM), 1.09; with Axitinib + Navitoclax (first compound 0.01581 µM), 1.01. Moreover, the relative viability with Axitinib + Navitoclax (first compound 0.05 µM) is 1.05; with Axitinib + Navitoclax (first compound 0.1581 µM), 0.967; in the test with Axitinib + Navitoclax (first compound 0.5 µM), 1.05; with Axitinib + Palbociclib (first compound 0.005 µM), 0.498; in the test with Axitinib + Palbociclib (first compound 0.01581 µM) it was 0.427; with Axitinib + Palbociclib (first compound 0.05 µM), 0.511. Moreover, the relative viability with Axitinib + Palbociclib (first compound 0.1581 µM) worked out at 0.563; in the test with Axitinib + Palbociclib (first compound 0.5 µM) it was 0.71.
On to RERF-LC-KJ, for which the relative viability was found to be 0.996 with Bemcentinib + AZD7762 (first compound 0.04 µM); 0.957 in the test with Bemcentinib + AZD7762 (first compound 0.1265 µM); 0.967 with Bemcentinib + AZD7762 (first compound 0.4 µM); 0.982 in the test with Bemcentinib + AZD7762 (first compound 1.265 µM); 0.888 with Bemcentinib + AZD7762 (first compound 4 µM); 0.721 in test [1] (first compound 1 µM). For the same cell line, the relative viability in test [1] (first compound 3.162 µM) was determined as 0.633; in test [1] (first compound 10 µM), 0.737; in test [1] (first compound 31.62 µM), 0.411; in test [1] (first compound 100 µM) it was 0.521; with Axitinib + Navitoclax (first compound 0.005 µM), 1; in the test with Axitinib + Navitoclax (first compound 0.01581 µM), 0.942. The relative viability in the test with Axitinib + Navitoclax (first compound 0.05 µM) came out at 0.973; with Axitinib + Navitoclax (first compound 0.1581 µM), 1.02; with Axitinib + Navitoclax (first compound 0.5 µM), 1.28; with Axitinib + Palbociclib (first compound 0.005 µM) it was 1.09; with Axitinib + Palbociclib (first compound 0.01581 µM) it was 1.16; with Axitinib + Palbociclib (first compound 0.05 µM), 1.03. Also, the results for the relative viability with Axitinib + Palbociclib (first compound 0.1581 µM) and in the test with Axitinib + Palbociclib (first compound 0.5 µM) were 1.14 and 1.11, respectively.
